From patent US20080069896A1, “Antitumor Composition” (Kabushiki Kaisha Sangi, priority 2004, published 2008)

How the values were obtained:
Type in all cases: cell-based
HepG2 = assay: MTT assay, human cancer cells HepG2; details: for IC50 of human cancer cells by MTT assay: HepG2, liver cancer, HAP agents particle diameter 0.1 μm or less; for Platinum content calculated from IC50 of human cancer cells by MTT assay: HepG2, IC50 converted to platinum concentration
Description: (§1) Effect of platinum tetrachloride/hydroxyapatite (PtCl4/HAP) and hexachloroplatinate/hydroxyapatite (H2PtCl6/HAP) against human cancer cells (MTT assay)
(§2) According to “in vitro toxicity test using MTT”, which is an ordinary test method, MTT assay was performed for PtCl4/HAP (particle diameter 0.1 μm or less), and H2PtCl6/HAP (particle diameter 0.1 μm or less) by using 19 types of human cancer cells. PtCl4/HAP and H2PtCl6/HAP were used by adjusting the final dispersion concentration to 1.0% in a dispersion liquid each containing 10% platinum as a theoretical value. For comparison, MTT assay was performed for PtCl4 and CDDP. PtCl4 was dissolved at an adequate dose, and then used after serial dilution with PBS (−). For CDDP, injection liquid from Malco was used.

[1] = system: human lung cancer cell Lu99; assay: MTT assay, human lung cancer cell Lu99; details: for IC50 of human cancer cells by MTT assay: Lu99, lung cancer, HAP agents particle diameter 0.1 μm or less (Table 1); for Platinum content calculated from IC50 of human cancer cells by MTT assay: Lu99, IC50 converted to platinum concentration (Table 2)
Description: as §1, §2

[2] = system: human lung cancer cell Lu65; assay: MTT assay, human lung cancer cell Lu65; details: for IC50 of human cancer cells by MTT assay: Lu65, lung cancer, HAP agents particle diameter 0.1 μm or less (Table 1); for Platinum content calculated from IC50 of human cancer cells by MTT assay: Lu65, IC50 converted to platinum concentration (Table 2)
Description: as §1, §2

AZ521 = assay: MTT assay, human cancer cells AZ521; details: for IC50 of human cancer cells by MTT assay: AZ521, gastric cancer, HAP agents particle diameter 0.1 μm or less; for Platinum content calculated from IC50 of human cancer cells by MTT assay: AZ521, IC50 converted to platinum concentration
Description: as §1, §2

LoVo = assay: MTT assay, human cancer cells LoVo; details: for Platinum content calculated from IC50 of human cancer cells by MTT assay: IC50 converted to platinum concentration; for IC50 of human cancer cells by MTT assay: colon cancer, HAP agents particle diameter 0.1 μm or less
Description: as §1, §2

SiHa = assay: MTT assay, human cancer cells SiHa; details: for Platinum content calculated from IC50 of human cancer cells by MTT assay: IC50 converted to platinum concentration; for IC50 of human cancer cells by MTT assay: cervical cancer, HAP agents particle diameter 0.1 μm or less
Description: as §1, §2

YES3 = assay: MTT assay, human cancer cells YES3; details: for IC50 of human cancer cells by MTT assay: YES3, esophageal cancer, HAP agents particle diameter 0.1 μm or less; for Platinum content calculated from IC50 of human cancer cells by MTT assay: YES3, IC50 converted to platinum concentration
Description: as §1, §2

HSC4 = assay: MTT assay, human cancer cells HSC4; details: for IC50 of human cancer cells by MTT assay: HSC4, oral cancer, HAP agents particle diameter 0.1 μm or less; for Platinum content calculated from IC50 of human cancer cells by MTT assay: HSC4, IC50 converted to platinum concentration
Description: as §1, §2

YES1 = assay: MTT assay, human cancer cells YES1; details: for IC50 of human cancer cells by MTT assay: YES1, esophageal cancer, HAP agents particle diameter 0.1 μm or less; for Platinum content calculated from IC50 of human cancer cells by MTT assay: YES1, IC50 converted to platinum concentration
Description: as §1, §2

HT1080 = assay: MTT assay, human cancer cells HT1080; details: for IC50 of human cancer cells by MTT assay: HT1080, fibrosarcoma, HAP agents particle diameter 0.1 μm or less; for Platinum content calculated from IC50 of human cancer cells by MTT assay: HT1080, IC50 converted to platinum concentration
Description: as §1, §2

Compound | IC50 of human cancer cells by MTT assay (HepG2) [ppm] | Platinum content calculated from IC50 of human cancer cells by MTT assay (HepG2) [ppm] | IC50 of human cancer cells by MTT assay [1] [ppm] | Platinum content calculated from IC50 of human cancer cells by MTT assay [1] [ppm] | IC50 of human cancer cells by MTT assay [2] [ppm] | Platinum content calculated from IC50 of human cancer cells by MTT assay [2] [ppm] | IC50 of human cancer cells by MTT assay (AZ521) [ppm] | Platinum content calculated from IC50 of human cancer cells by MTT assay (AZ521) [ppm] | Platinum content calculated from IC50 of human cancer cells by MTT assay (LoVo) [ppm] | IC50 of human cancer cells by MTT assay (LoVo) [ppm] | Platinum content calculated from IC50 of human cancer cells by MTT assay (SiHa) [ppm] | IC50 of human cancer cells by MTT assay (SiHa) [ppm] | IC50 of human cancer cells by MTT assay (YES3) [ppm] | Platinum content calculated from IC50 of human cancer cells by MTT assay (YES3) [ppm] | IC50 of human cancer cells by MTT assay (HSC4) [ppm] | Platinum content calculated from IC50 of human cancer cells by MTT assay (HSC4) [ppm] | IC50 of human cancer cells by MTT assay (YES1) [ppm] | Platinum content calculated from IC50 of human cancer cells by MTT assay (YES1) [ppm] | IC50 of human cancer cells by MTT assay (HT1080) [ppm] | Platinum content calculated from IC50 of human cancer cells by MTT assay (HT1080) [ppm]
[NH2][Pt]([NH2])([Cl])[Cl] [CDDP, cisplatin] | 5.0 | 5.0 | 0.8 | 0.8 | 2.7 | 2.7 | 1.0 | 0.7 | 10.3 | 15.8 | 9.8 | 15.1 | 1.2 | 0.8 | 4.5 | 2.9 | 8.2 | 5.4 | 25.5 | 16.6
[Cl][Pt]([Cl])([Cl])[Cl] [PtCl4, platinum tetrachloride] | 6.2 | 6.2 | 1.1 | 1.1 | 0.9 | 0.9 | 14.6 | 8.4 | 3.8 | 6.6 | 5.0 | 8.7 | 19.2 | 11.1 | 5.7 | 3.3 | 19.2 | 11.1 | 9.6 | 5.6
